Laboratory results: paper PMC12410356 (International Journal for Parasitology: Drugs and Drug …, 2025)

Tests used:
[1] = test system: E. multilocularis metacestode vesicles; test: Phosphoglucose isomerase (PGI) release assay (damage-marker release) on metacestode vesicles; type: cell-based, Echinococcus multilocularis; details: 10 μM; for PGI d5 (relative PGI release): 5 days; for PGI d12 (relative PGI release): 12 days
Experimental: In order to quantify the drug-induced damage on whole metacestode vesicles, phosphoglucose isomerase (PGI) assay was performed as described previously ([Stadelmann et al., 2010]) with few adaptations published recently ([Kaethner et al., 2023]). In short, 8 to 12 weeks-old metacestode vesicles were purified using 2 % sucrose with subsequent washes in PBS. Metacestode vesicles were diluted in two volumes of DMEM without phenol red containing penicillin (100 U/mL) and streptomycin (100 μg/mL). […] 0.1 % DMSO was used as a negative solvent control and 0.1 % Triton X-100 was used as a positive total damage control. Metacestode vesicles were incubated under a humid, 5 % CO2 atmosphere at 37 °C. After five and twelve days, supernatant was taken and pictures were made using a Nikon SMZ18 stereo microscope (Nikon, Basel, Switzerland) at 7.5 × magnification. PGI activity in the supernatants was measured on a HIDEX Sense microplate reader (Hidex, Turku, Finland). The corresponding values of the DMSO controls were subtracted from the values of the compounds and then PGI activity was calculated relative to 0.1 % Triton X-100. […] IC50 values were calculated applying the 3 parameter Weibull type 1 in R for each of the three independent experiments ([Ritler et al., 2020]).

[2] = test system: E. multilocularis metacestode vesicles; test: Metacestode vesicle viability assay (ATP, CellTiter-Glo); type: cell-based, Echinococcus multilocularis
Experimental: Viability was assessed after 12 days using the same metacestode vesicles as for the PGI release assay. Triton X-100 was added to each well to a final concentration of 0.1 %. Subsequently the metacestode vesicles were broken mechanically and 50 μL of the supernatant was mixed with 50 μL of CellTiter-Glo® buffer (Promega, Dübendorf, Switzerland). Measurements were performed on a HIDEX Sense microplate reader.

[3] = confirmation screen, triplicates, mean
[4] = overview screen, singlets, relative to 0.1 % Triton X-100, DMSO subtracted
[5] = confirmation screen, 10 μM, triplicates, mean, 12 days
[6] = overview screen, 10 μM, singlets, 12 days, relative to DMSO control

SMILES | PGI d5 (relative PGI release) [1, 3] [%] | PGI d12 (relative PGI release) [1, 3] [%] | PGI d5 (relative PGI release) [1, 4] [%] | PGI d12 (relative PGI release) [1, 4] [%] | Viability d12 (relative viability) [2, 5] [%] | Viability d12 (relative viability) [2, 6] [%] | Viability d12 (relative viability) ([2]; 10 µM) [%]
N=c1n(CCN2CCCCC2)c2ccccc2n1CC(O)COc1ccc(Cl)cc1Cl (stereo not drawn) [MMV394033] | 0.57 | 0.65 | 6.943 | 70.607 | 90.34 | 9.628 | 
Oc1cc(-c2cccc3ccccc23)[nH]n1 [MMV422940] |  |  | -1.4338 | -25.9471 |  | 50.1817 | 
O=C(O)C(Cc1c[nH]c2ccccc12)N1C(=O)c2ccccc2C1=O (stereo not drawn) [MMV452821] |  |  | 1.873 | 0.986 |  | 132.36 | 
NC(=O)c1ccccc1NC(=O)c1ccc(C(=O)Nc2ccccc2C(N)=O)cc1 [MMV508427] |  |  | -1.548 | -12.1939 |  | 83.3301 | 
Oc1c(C(Nc2ccccn2)c2ccccc2)ccc2cccnc12 (stereo not drawn) [MMV565773] |  |  | -0.6323 | -6.242 |  | 113.31 | 
O=C(c1cc(O)nc2ccccc12)N1CCN(c2ccccc2)CC1 [MMV596723] |  |  | 0.1357 | -19.4413 |  | 136.964 | 
COc1ccc(-n2cnc3cc(NCc4ccco4)ccc32)cc1 [MMV617332] |  |  | 0.2921 | -0.1496 |  | 117.278 | 
CN(Cc1ccc(C(C)(C)C)cc1)Cc1cccc2ccccc12.Cl [MMV637104] |  |  | -1.862 | -24.2411 |  | 73.8114 | 
O=c1[nH]cnc2c1ncn2[C@H]1CC[C@@H](CO)O1 [MMV637306] |  |  | -0.8027 | 5.98 |  |  | 229.844
Nc1nc(F)nc2c1ncn2[C@@H]1O[C@H](CO)[C@@H](O)[C@@H]1O [MMV637413] |  |  | -0.694 | 1.228 |  | 168.919 | 
CCC(C)n1ncn(-c2ccc(N3CCN(c4ccc(OCC5COC(Cn6cncn6)(c6ccc(Cl)cc6Cl)O5)cc4)CC3)cc2)c1=O (stereo not drawn) [MMV637528] |  |  | -2.417 | -24.1326 |  | 37.4902 | 
CC(=O)N1CCN(c2ccc(OC[C@@H]3CO[C@@](Cn4ccnc4)(c4ccc(Cl)cc4Cl)O3)cc2)CC1 [MMV637533] |  |  | 1.26 | -24.3929 |  | 224.858 | 
CC1CCc2c(N3CCC(O)CC3)c(F)cc3c(=O)c(C(=O)O)cn1c23 (stereo not drawn) [MMV637659] |  |  | -2.748 | -5.473 |  |  | 137.188
CC(N)C12CC3CC(CC(C3)C1)C2 (stereo not drawn) [MMV637855] |  |  | 0.08745 | -0.5462 |  | 63.7477 | 
CC(C)(C)NC(=O)[C@@H]1C[C@@H]2CCCC[C@@H]2CN1C[C@@H](O)[C@H](Cc1ccccc1)NC(=O)[C@H](CC(N)=O)NC(=O)c1ccc2ccccc2n1 [MMV637879] |  |  | -0.1506 | -17.9883 |  |  | 108.384
C=C(C)[C@@H]1CC[C@]2(C(=O)O)CC[C@]3(C)[C@H](CC[C@@H]4[C@@]5(C)CC[C@H](O)C(C)(C)[C@@H]5CC[C@]43C)[C@@H]12 [MMV638198] |  |  | -0.508 | -0.6563 |  | 121.139 | 
COC1CC2CCC(C)C(O)(O2)C(=O)C(=O)N2CCCCC2C(=O)OC(C(C)CC2CCC(OCCO)C(OC)C2)CC(=O)C(C)/C=C(\C)C(O)C(OC)C(=O)C(C)CC(C)/C=C/C=C/C=C/1C (stereo not drawn) [MMV639951] |  |  | -0.3944 | -20.0049 |  | 85.7507 | 
O=C(O)c1ccc(-n2nc(-c3ccccc3O)nc2-c2ccccc2O)cc1 [MMV640014] |  |  | -1.416 | -24.5374 |  | 145.619 | 
Oc1cccc(C(Nc2nccs2)c2ccc3cccnc3c2O)c1 (stereo not drawn) [MMV642550] | 0.17 | 0.81 | 8.475 | 88.2133 | 142.26 | 17.7096 | 

SMILES | PGI d5 (relative PGI release) [1, 3] [%] | PGI d12 (relative PGI release) [1, 3] [%] | PGI d5 (relative PGI release) [1, 4] [%] | PGI d12 (relative PGI release) [1, 4] [%] | Viability d12 (relative viability) [2, 5] [%] | Viability d12 (relative viability) [2, 6] [%] | Viability d12 (relative viability) ([2]; 10 µM) [%]
Cn1cncc1[C@@](N)(c1ccc(Cl)cc1)c1ccc2c(c1)c(-c1cccc(Cl)c1)cc(=O)n2C [MMV658803] |  |  | 0.7883 | -2.529 |  | 92.252 | 
CC(C)=CCC/C(C)=C\CNCCNC1C2CC3CC(C2)CC1C3 (stereo not drawn) [MMV687273] |  |  | 0.6754 | -4.6575 |  | 47.5933 | 
CCc1nc2ccc(Cl)cn2c1C(=O)NCc1ccc(N2CCC(c3ccc(OC(F)(F)F)cc3)CC2)cc1 [MMV687696] |  |  | -3.859 | -6.627 |  | 83.8288 | 
CC(C)N=c1cc2n(-c3ccc(Cl)cc3)c3ccccc3nc-2cc1Nc1ccc(Cl)cc1 [MMV687800] | 0.81 | 1.29 | 10.9227 | 104.553 | 142.49 | 4.175 | 
CC[C@H](CO)NCCN[C@H](CC)CO [MMV687801] |  |  | -2.724 | 9.893 |  | 117.919 | 
O=[N+]([O-])c1cn2c(n1)OC[C@@H](OCc1ccc(OC(F)(F)F)cc1)C2 [MMV688755] |  |  | -1.0977 | -12.4687 |  | 91.4293 | 
CC(=O)NC[C@H]1CN(c2ccc(N3CCSCC3)c(F)c2)C(=O)O1 [MMV688756] |  |  | -1.412 | -2.526 |  | 97.3563 | 
O=C(NCc1ncc(C(F)(F)F)cc1Cl)c1c(Cl)cccc1Cl [MMV689401] |  |  | -2.654 | -25.1085 |  | 22.5442 | 
COc1nc2ccc(Br)cc2cc1[C@@H](c1ccccc1)[C@@](O)(CCN(C)C)c1cccc2ccccc12 [MMV689758] |  |  | -2.925 | -4.755 |  | 111.826 | 
Cc1cc(CCCOc2c(C)cc(-c3noc(C(F)(F)F)n3)cc2C)on1 [MMV690467] |  |  | 0.4162 | 0.2856 |  | 74.4224 | 
COc1ccccc1CN[C@H]1C2CCN(CC2)[C@H]1C(c1ccccc1)c1ccccc1 [MMV690480] |  |  | -0.6012 | -18.8913 |  | 61.0456 | 
Nc1nc(=O)c(Br)c(-c2ccccc2)[nH]1 [MMV690540] | 0.19 | 1.01 | 2.1344 | 38.5177 | 98.22 | 20.6612 | 
CCOCc1nc2c(N)nc3ccccc3c2n1CC(C)(C)O [MMV690547] | 0.18 | 0.96 | 0.01909 | 53.3537 | 159.08 | 9.628 | 
FC(F)(F)c1cc(C(F)(F)F)c2ccc3nc(-c4nnco4)cn3c2n1 [MMV690555] |  |  | 0.9496 | 0.5886 |  | 300.676 | 
O=C(NC1CCCc2c1[nH]c1ccc(Cl)cc21)c1ccccn1 (stereo not drawn) [MMV690621] |  |  | 0.1463 | -17.1395 |  |  | 144.507
O=C(NO)C1(CS(=O)(=O)c2ccc(Oc3ccc(Cl)cc3)cc2)CCOCC1 [MMV690706] |  |  | 0.06885 | -1.025 |  | 178.089 | 
CN(C)CCNC(=O)c1cccc2cccnc12 [MMV811071] |  |  | 0.8254 | 33.0305 |  | 78.9047 | 
CCc1ccc(C2CC(C(F)(F)F)n3ncc(C(=O)NCc4ccc(OC)cc4)c3N2)cc1 (stereo not drawn) [MMV831201] |  |  | -0.786 | -0.2956 |  | 124.843 | 
